In patent US11020395B2, “Cycloalkyl substituted triazole compounds as agonists of the APJ receptor” (AMGEN INC., priority 2016, dated 2021):

biological target: human APJ receptor (Homo sapiens (Human), UniProt P35414); assay: [35S]GTPγS binding assay on membranes from CHO cells stably expressing human APJ receptor; format: biochemical; details: [35S]GTPγS SPA, read-out: Activity hAPJ SPA EC50 IP
Method: [^35S]GTPγS Binding The human APJ receptor was cloned by polymerase chain reaction and the gene encoding the receptor was subcloned in pFLAG-CMV™-3 expression vector (Sigma, Saint Louis, Mo. USA) in-house at Amgen. A GTPγS binding assay was performed on membranes prepared from CHO cells stably expressing human APJ receptor. The optimum experimental conditions for the concentrations of GDP, MgCl2, and NaCl in the assay buffer were initially determined. […] Incubation was at RT for 90 min and the microplate was read using a ViewLux™ ultra HTS Microplate Imager (PerkinElmer, Inc.). All the results presented are means of several independent experiments and analyzed by non-linear regression methods using the commercially available program Prism (GraphPad, San Diego, Calif.) providing the EC50 values detailed in Table 25.

human APJ receptor, sequence (P35414 whole entry): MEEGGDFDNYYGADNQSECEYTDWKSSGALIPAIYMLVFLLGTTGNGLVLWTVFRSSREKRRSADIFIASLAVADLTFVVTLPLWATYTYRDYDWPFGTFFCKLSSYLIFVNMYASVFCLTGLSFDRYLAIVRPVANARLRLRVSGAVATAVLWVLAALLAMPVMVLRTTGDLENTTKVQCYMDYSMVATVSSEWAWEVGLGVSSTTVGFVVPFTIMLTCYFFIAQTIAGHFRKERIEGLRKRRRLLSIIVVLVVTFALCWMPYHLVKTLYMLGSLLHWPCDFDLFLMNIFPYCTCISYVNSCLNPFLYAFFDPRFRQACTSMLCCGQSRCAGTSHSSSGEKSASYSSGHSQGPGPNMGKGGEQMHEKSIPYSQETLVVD

| Molecule | EC50 [µM] |
| --- | --- |
| COc1ncnc(OC)c1-n1c(NS(=O)(=O)[C@@H](C)[C@H](OC)c2ncc(Cl)cn2)nnc1[C@H]1CC[C@@H](C(F)F)CC1 (single isomer, unassigned) [Example 145.0, (1R,2S)-1-(5-chloro-2-pyrimidinyl)-N-(5-(cis-4-(difluoromethyl)cyclohexyl)-4-(4,6-dimethoxy-5-pyrimidinyl)-4H-1,2,4-triazol-3-yl)-1-methoxy-2-propanesulfonamide or (1R,2S)-1-(5-chloro-2-pyrimidinyl)-N-(5-(trans-4-(difluoromethyl)cyclohexyl)-4-(4,6-dimethoxy-5-pyrimidinyl)-4H-1,2,4-triazol-3-yl)-1-methoxy-2-propanesulfonamide] | 0.0048 |
| COc1ncnc(OC)c1-n1c(NS(=O)(=O)[C@@H](C)[C@H](OC)c2ncc(Cl)cn2)nnc1[C@H]1CC[C@@H]1F (single isomer, unassigned) [Example 182.0, (1R,2S)-1-(5-chloropyrimidin-2-yl)-N-(4-(4,6-dimethoxypyrimidin-5-yl)-5-((1R,2S)-2-fluorocyclobutyl)-4H-1,2,4-triazol-3-yl)-1-methoxypropane-2-sulfonamide or (1R,2S)-1-(5-chloropyrimidin-2-yl)-N-(4-(4,6-dimethoxypyrimidin-5-yl)-5-((1S,2R)-2-fluorocyclobutyl)-4H-1,2,4-triazol-3-yl)-1-methoxypropane-2-sulfonamide] | 0.01 |
| COc1cccc(OC)c1-n1c(NS(=O)(=O)[C@@H](C)[C@H](C)c2ncc(C)cn2)nnc1C1(c2ccccn2)CC1 [Example 126.0] | 4.2 |
| COc1cccc(OC)c1-n1c(NS(=O)(=O)[C@@H](C)[C@H](OC)c2ncc(Cl)cn2)nnc1[C@H]1CC[C@@H](C#N)CC1 (single isomer, unassigned) [Example 199.0, (1R,2S)-1-(5-chloropyrimidin-2-yl)-N-(5-((1r,4R)-4-cyanocyclohexyl)-4-(2,6-dimethoxyphenyl)-4H-1,2,4-triazol-3-yl)-1-methoxypropane-2-sulfonamide or (1R,2S)-1-(5-chloropyrimidin-2-yl)-N-(5-((1s,4R)-4-cyanocyclohexyl)-4-(2,6-dimethoxyphenyl)-4H-1,2,4-triazol-3-yl)-1-methoxypropane-2-sulfonamide] | 0.0081 |
| COc1cccc(OC)c1-n1c(NS(=O)(=O)[C@@H](C)[C@H](OC)c2ncc(Cl)cn2)nnc1[C@H]1CCC1(F)F (single isomer, unassigned) [Example 160.0, (1R,2S)-1-(5-chloropyrimidin-2-yl)-N-(5-((R)-2,2-difluorocyclobutyl)-4-(2,6-dimethoxyphenyl)-4H-1,2,4-triazol-3-yl)-1-methoxypropane-2-sulfonamide or (1R,2S)-1-(5-chloropyrimidin-2-yl)-N-(5-((S)-2,2-difluorocyclobutyl)-4-(2,6-dimethoxyphenyl)-4H-1,2,4-triazol-3-yl)-1-methoxypropane-2-sulfonamide] | 0.027 |
| COc1ncnc(OC)c1-n1c(NS(=O)(=O)[C@@H](C)[C@H](OC)c2cnc(C)cn2)nnc1C1CCC1 [Example 82.0, (1R,2S)-N-(5-cyclobutyl-4-(4,6-dimethoxy-5-pyrimidinyl)-4H-1,2,4-triazol-3-yl)-1-methoxy-1-(5-methyl-2-pyrazinyl)-2-propanesulfonamide] | 0.05 |
| (1R,2S)-1-(5-chloropyrimidin-2-yl)-N-(5-((R)-2,2-dimethylcyclopropyl)-4-(tetrahydro-2H-pyran-4-yl)-4H-1,2,4-triazol-3-yl)-1-methoxypropane-2-sulfonamide or (1R,2S)-1-(5-chloropyrimidin-2-yl)-N-(5-((S)-2,2-dimethylcyclopropyl)-4-(tetrahydro-2H-pyran-4-yl)-4H-1,2,4-triazol-3-yl)-1-methoxypropane-2-sulfonamide [Example 21.0] | 0.48 |
| (2S,3R)-3-(5-chloropyrimidin-2-yl)-N-(4-(2,6-dimethoxyphenyl)-5-((S)-spiro[2.2]pentan-1-yl)-4H-1,2,4-triazol-3-yl)butane-2-sulfonamide or (2S,3R)-3-(5-chloropyrimidin-2-yl)-N-(4-(2,6-dimethoxyphenyl)-5-((R)-spiro[2.2]pentan-1-yl)-4H-1,2,4-triazol-3-yl)butane-2-sulfonamide [Example 218.0] | 0.0011 |
| (1R,2S)-1-(5-chloropyrimidin-2-yl)-N-(4-(4,6-dimethoxypyrimidin-5-yl)-5-((R)-spiro[2.2]pentan-1-yl)-4H-1,2,4-triazol-3-yl)-1-methoxypropane-2-sulfonamideor (1R,2S)-1-(5-chloropyrimidin-2-yl)-N-(4-(4,6-dimethoxypyrimidin-5-yl)-5-((S)-spiro[2.2]pentan-1-yl)-4H-1,2,4-triazol-3-yl)-1-methoxypropane-2-sulfonamide [Example 105.0] | 0.00092 |
| COc1ncnc(OC)c1-n1c(NS(=O)(=O)[C@@H](C)[C@H](OC)c2ncc(Cl)cn2)nnc1C1CC1 [Example 24.0, (1R,2S)-1-(5-chloropyrimidin-2-yl)-N-(5-cyclopropyl-4-(4,6-dimethoxypyrimidin-5-yl)-4H-1,2,4-triazol-3-yl)-1-methoxypropane-2-sulfonamide] | 0.011 |
| COc1ncnc(OC)c1-n1c(NS(=O)(=O)[C@@H](C)[C@H](OC)c2ncc(Cl)cn2)nnc1C1CC2(CC2)C1 [Example 183.0, (1R,2S)-1-(5-chloro-2-pyrimidinyl)-N-(4-(4,6-dimethoxy-5-pyrimidinyl)-5-(spiro[2.3]hexan-5-yl)-4H-1,2,4-triazol-3-yl)-1-methoxy-2-propanesulfonamide] | 0.0014 |
| COc1ncnc(OC)c1-n1c(NS(=O)(=O)[C@@H](C)[C@H](OC)c2ncc(Cl)cn2)nnc1[C@H]1C[C@@H](C(F)(F)F)C1 (single isomer, unassigned) [Example 177.0, (1R,2S)-1-(5-chloropyrimidin-2-yl)-N-(4-(4,6-dimethoxypyrimidin-5-yl)-5-((1s,3R)-3-(trifluoromethyl)cyclobutyl)-4H-1,2,4-triazol-3-yl)-1-methoxypropane-2-sulfonamide or (1R,2S)-1-(5-chloropyrimidin-2-yl)-N-(4-(4,6-dimethoxypyrimidin-5-yl)-5-((1r,3S)-3-(trifluoromethyl)cyclobutyl)-4H-1,2,4-triazol-3-yl)-1-methoxypropane-2-sulfonamide] | 0.023 |
| COc1ncnc(OC)c1-n1c(NS(=O)(=O)[C@@H](C)[C@H](OC)c2ncc(Cl)cn2)nnc1[C@H]1C[C@]2(CC2(F)F)C1 (single isomer, unassigned) [Example 204.0, (1R,2S)-1-(5-chloropyrimidin-2-yl)-N-(5-((3R,5s)-1,1-difluorospiro[2.3]hexan-5-yl)-4-(4,6-dimethoxypyrimidin-5-yl)-4H-1,2,4-triazol-3-yl)-1-methoxypropane-2-sulfonamide or (1R,2S)-1-(5-chloropyrimidin-2-yl)-N-(5-((3S,5r)-1,1-difluorospiro[2.3]hexan-5-yl)-4-(4,6-dimethoxypyrimidin-5-yl)-4H-1,2,4-triazol-3-yl)-1-methoxypropane-2-sulfonamide] | 0.034 |
| COc1ncnc(OC)c1-n1c(NS(=O)(=O)[C@@H](C)[C@H](OC)c2ncc(C)cn2)nnc1C1CC2(CC2)C1 [Example 200.0] | 0.0046 |
| COc1cccc(OC)c1-n1c(NS(=O)(=O)[C@@H](C)[C@H](C)c2cnc(C)cn2)nnc1C1CCC1 [Example 139.0] | 0.029 |
| COc1cccc(OC)c1-n1c(NS(=O)(=O)[C@@H](C)[C@@H](OC(C)C)c2ncc(C)cn2)nnc1[C@H]1C2CC1[C@@H]2O [Example 228.0, (1S,2S)-N-(4-(2,6-dimethoxyphenyl)-5-(cis-4-hydroxybicyclo[1.1.1]pentan-2-yl)-4H-1,2,4-triazol-3-yl)-1-isopropoxy-1-(5-methylpyrimidin-2-yl)propane-2-sulfonamide and (1S,2S)-N-(4-(2,6-dimethoxyphenyl)-5-(trans-4-hydroxybicyclo[1.1.1]pentan-2-yl)-4H-1,2,4-triazol-3-yl)-1-isopropoxy-1-(5-methylpyrimidin-2-yl)propane-2-sulfonamide] | 0.19 |
| COc1ncnc(OC)c1-n1c(NS(=O)(=O)[C@@H](C)[C@H](OC)c2ncc(Cl)cn2)nnc1[C@H]1C[C@@H](F)C1 (single isomer, unassigned) [Example 162.0, (1R,2S)-1-(5-chloropyrimidin-2-yl)-N-(4-(4,6-dimethoxypyrimidin-5-yl)-5-((1s,3R)-3-fluorocyclobutyl)-4H-1,2,4-triazol-3-yl)-1-methoxypropane-2-sulfonamide or (1R,2S)-1-(5-chloropyrimidin-2-yl)-N-(4-(4,6-dimethoxypyrimidin-5-yl)-5-((1r,3S)-3-fluorocyclobutyl)-4H-1,2,4-triazol-3-yl)-1-methoxypropane-2-sulfonamide] | 0.014 |
| COc1cccc(OC)c1-n1c(NS(=O)(=O)[C@@H](C)[C@H](OC)c2ncc(Cl)cn2)nnc1[C@H]1C[C@@H](CO)C1 (single isomer, unassigned) [Example 123.0, (1R,2S)-1-(5-chloro-2-pyrimidinyl)-N-(4-(2,6-dimethoxyphenyl)-5-(cis-3-(hydroxymethyl)cyclobutyl)-4H-1,2,4-triazol-3-yl)-1-methoxy-2-propanesulfonamide or (1R,2S)-1-(5-chloro-2-pyrimidinyl)-N-(4-(2,6-dimethoxyphenyl)-5-(trans-3-(hydroxymethyl)cyclobutyl)-4H-1,2,4-triazol-3-yl)-1-methoxy-2-propanesulfonamide] | 0.0051 |
| COc1ncnc(OC)c1-n1c(NS(=O)(=O)[C@@H](C)[C@H](C)c2ncc(C)cn2)nnc1C1CCC1 [Example 4.0, (2S,3R)-N-(5-cyclobutyl-4-(4,6-dimethoxy-5-pyrimidinyl)-4H-1,2,4-triazol-3-yl)-3-(5-methyl-2-pyrimidinyl)-2-butanesulfonamide] | 0.021 |
